The record followed here is patent publication US20040208842A1, “Antimicrobial cleansing compositions and methods of use” (priority 2001, published 2004).

Values joined by “and” are separate entries in the source; they are usually repeats but may differ in a detail not shown here. Identical values can stand only once.

The test system of test [1] is Staphylococcus aureus. As to the kind of experiment: MIC (broth-dilution microtiter) and FIC/isobologram (microtiter checkerboard) of EDTA-Tris and antibiotics. The format is cell-based. To be noted: Staph. aureus. On the procedure:
(§1) Agents and Chem. 210-217. (1967) and Sparks et al., Vet. Res. Comm. 18, 241-249 (1994), incorporated herein by reference in their entireties.
(§2) Then 0.05 ml of an 18-hour old culture of a test organism, containing 10^6 colony-forming units (CFU)/ml, was added to each well. Controls for the culture and media were included in each plate. Plates were covered and incubated at 37° Celsius for 18-24 hours.
(§3) To generate isobolograms, FICs of the two test solutions were plotted individually on the x-axis and y-axis to determine the effect of combining the two test solutions on bacterial growth. A line that curves away from the zero point and the coordinates indicates antagonism.
(§4) A numerical score or fractional inhibitory concentration (FIC) index was determined. The FIC index is equal to the sum of the values of FIC for the individual drugs: [formula]
(§5) An FIC index greater than 1.0 indicates an antagonistic interaction, an FIC index of 1.0 indicates addition, and an FIC index of less than or equal to 0.5 indicates synergism between the two test agents.
(§6) The organisms of this study were isolated from human burn patients. They included strains of methicillin resistant Staphylococcus aureus, and vancomycin resistant strains of Pseudomonas aeruginosa and Enterococcus faecalis. The bacterial isolates were propagated in or on Brain Heart Infusion broth (BHI), Mueller-Hinton Broth (MHB), blood agar (BA), Mueller-Hinton agar (MHA), enterococcus agar (EA), or 2× nutrient agar (2×NA).

Test [2] concerns Enterococcus faecalis. The test is described as above. The format is cell-based. To be noted: Ent. faecalis. On the procedure:
as §1, §2, §3, §4, §5, §6

The test system of test [3] is Pseudomonas aeruginosa. The test is described as above. The test is classed as cell-based. The conditions noted are these: Ps. aeruginosa. How it is done:
as §1, §2, §3, §4, §5, §6

The test system of test [4] is Staphylococcus aureus. As to the kind of experiment: Antibiotic resistance profile by disc diffusion on MHA. Also: key: R = resistant; I = intermediate; S = sensitive. The format is cell-based. To be noted: human burn isolate. On the procedure:
as §6
(§7) Antibiotic resistance profiles were determined by the disc diffusion method on MHA (5).

Test [5] concerns Enterococcus faecalis. The test is described as above. The format is cell-based. The conditions noted are these: human burn isolate. On the procedure:
as §6, §7

For test [6], the system named is Pseudomonas aeruginosa. The description is as above. The format is cell-based. To be noted: human burn isolate. How it is done:
as §6, §7

The next test concerns E. coli. As to the kind of experiment: MIC and MBC of cleanser formulation and components. The test is classed as cell-based, Escherichia coli. To be noted: cocamidopropyl betaine alone. On the procedure: (§8) The solution containing 10% cocamidopropyl betaine was selected for further testing. The formulation was tested against Pseudomonas aeruginosa, Proteus mirabilis, […] coli, Staphylococcus intermedius, Malassezia pachydermatis, and Candida albicans.

Another test relates to Proteus mirabilis. As to the kind of experiment: MIC and MBC of cleanser formulation and components. The format is cell-based. To be noted: P. mirabilis; cocamidopropyl betaine alone. How it is done:
as §8

Another test has as its system Malassezia pachydermatis. As to the kind of experiment: MIC and MBC of cleanser formulation and components. The conditions noted are these: M. pachydermatis; cocamidopropyl betaine alone. The format is cell-based. On the procedure: as §8
Test [7] has as its system Pseudomonas aeruginosa. Kind of test: MIC and MBC of cleanser formulation and components. The test is classed as cell-based. To be noted: P. aeruginosa; cocamidopropyl betaine alone. On the procedure: as §8
Test [8] concerns Staphylococcus intermedius. As to the kind of experiment: MIC and MBC of cleanser formulation and components. The format is cell-based. To be noted: S. intermedius; cocamidopropyl betaine alone. How it is done: as §8
The next test concerns Candida albicans. As to the kind of experiment: MIC and MBC of cleanser formulation and components. To be noted: C. albicans; cocamidopropyl betaine alone. The format is cell-based. How it is done:
as §8

In test [9] the test system is Staphylococcus aureus. Kind of test: Minimal Bactericidal Concentration (MBC) of EDTA and neomycin in 50 mM Tris. To be noted: Staph. aureus. The format is cell-based.
Source text: as §6

Test [10] deals with Enterococcus faecalis. Described as above. The test is classed as cell-based.
Source text: as §6

In test [11] the test system is Pseudomonas aeruginosa. The test is described as above. The test is classed as cell-based. The conditions noted are these: Ps. aeruginosa.
Source text: as §6
For Antibiotic resistance profile in this document: key: R = resistant; I = intermediate; S = sensitive.

`O=C(O)CN(CCN(CC(=O)O)CC(=O)O)CC(=O)O` [EDTA, ethylenediamenetetracetic acid]: the figures for the “MIC, EDTA Individually Administered” value with Staphylococcus aureus [1] (EDTA in 50 mM Tris alone), in the test on Enterococcus faecalis [2] (EDTA in 50 mM Tris alone) and with Pseudomonas aeruginosa [3] (EDTA in 50 mM Tris alone) were 1.0 mM, 15.63 mM and 1.25 mM, respectively.
As for `CN[C@H](CC(C)C)C(=O)N[C@H]1C(=O)N[C@@H](CC(N)=O)C(=O)N[C@H]2C(=O)N[C@H]3C(=O)N[C@H](C(=O)N[C@H](C(=O)O)c4cc(O)cc(O)c4-c4cc3ccc4O)[C@H](O)c3ccc(c(Cl)c3)Oc3cc2cc(c3O[C@@H]2O[C@H](CO)[C@@H](O)[C@H](O)[C@H]2O[C@H]2C[C@](C)(N)[C@H](O)[C@H](C)O2)Oc2ccc(cc2Cl)[C@H]1O` [Va, vancomycin], the values for the Antibiotic resistance profile result in the test with Staphylococcus aureus [4], in the test with Enterococcus faecalis [5] and with Pseudomonas aeruginosa [6] were “S”, “R” and “R”, respectively.
Take cocamidopropyl betaine: the MBC in the test with E. coli is 50% of stock solution; with Proteus mirabilis, 50% of stock solution; in the test with Malassezia pachydermatis it was 0.3% of stock solution; in the test with Pseudomonas aeruginosa [7] it was 50% of stock solution; in test [8], 0.1% of stock solution; with Candida albicans, 0.3% of stock solution. The MIC with E. coli is listed as 25% of stock solution; with Proteus mirabilis it was 25% of stock solution; with Malassezia pachydermatis, 0.1% of stock solution; with Pseudomonas aeruginosa [7] it was 25% of stock solution; in test [8] it was 0.1% of stock solution; in the test with Candida albicans, 0.1% of stock solution.
As for gentamicin [Gm], the Antibiotic resistance profile entry in the test on Staphylococcus aureus [4] is reported as “S”; in the test on Enterococcus faecalis [5] it was “R”; with Pseudomonas aeruginosa [6], “I”.
With neomycin, the Antibiotic resistance profile result with Staphylococcus aureus [4], in the test with Enterococcus faecalis [5] and with Pseudomonas aeruginosa [6] was “R” each time. Also, the “Decrease of MBC value when EDTA and neomycin combined compared to individually administered” value with Staphylococcus aureus [9] is “about 50% and 50%”; in the test with Enterococcus faecalis [10] (Ent. faecalis), 75%. The “MBC of Neomycin, Individually Administered” value stood at 3.13 mg/mL in the test on Staphylococcus aureus [9] (in 50 mM Tris); 25.0 mg/mL with Enterococcus faecalis [10] (En. faecalis, in 50 mM Tris); 5.0 mg/mL in the test with Pseudomonas aeruginosa [11]. Moreover, the “MBC of Neomycin, Co-administered” value worked out at 1.56 mg/mL in the test on Staphylococcus aureus [9] (with EDTA, in 50 mM Tris); 6.25 mg/mL in the test with Enterococcus faecalis [10] (En. faecalis, with EDTA, in 50 mM Tris); 0.04 mg/mL in the test with Pseudomonas aeruginosa [11] (with EDTA). Also, the “MIC, antibiotic Individually Administered” value in the test on Staphylococcus aureus [1] (antibiotic alone) was 3.13 mg/mL; in the test on Enterococcus faecalis [2] (antibiotic alone), 3.13 mg/mL; in the test on Pseudomonas aeruginosa [3] (antibiotic alone), 1.0 mg/mL.
